Results reported in EP0565593B1, “REDUCING PESTICIDAL INTERACTIONS IN CROPS” (priority 1990, dated 1992).
Values joined by “and” are separate entries in the source; they are usually repeats but may differ in a detail not shown here. Equal values may be shown once.

Legend:
[1] = system: velvetleaf (Abutilon theophrasti); assay: Greenhouse test, combination of Procedures II and III (Examples 1, 2; Tables 1, 2); format: in vivo; settings: for Percent Injury VELE: 7 weeks; for % Injury VELE: 3 weeks
Corn [2] = assay: Greenhouse test Procedure I with PPI or POE herbicide and foliar insecticide (Example 5; Table 5); format: in vivo; settings: for % Injury Corn: 3 weeks
Protocol: (§1) Containers were filled and compacted with a fumigated silt loam top soil to a depth of about 1.3 cm from the top of the container. A first container was designated as an untreated control, a second container was designated as a herbicide control, and a third container was designated as a herbicide + antidote test container. Each of the containers was seeded with a crop species. A measured amount of herbicide dispersed or dissolved in acetone was applied to a measured quantity of soil. To this same quantity of soil treated with herbicide, there was added a measured amount of antidote dispersed or dissolved in acetone. The quantity of soil treated with the herbicide and antidote was thoroughly mixed to incorporate the herbicide and antidote in the soil uniformly. The seed bed in the third container of soil was covered with the soil treated with the herbicide and antidote and the container was leveled. For each test series, the seed beds of the first and second containers were likewise covered by soil layers. the cover layer of the first container was not treated with herbicide or antidote.
(§2) Insecticide application was made as described in the tests in the examples below. The containers were then placed on a bench in a greenhouse and sub-irrigated as required for the duration of the test.
(§3) Said herbicide and antidote were sequentially pipetted onto cover layers, which were spread over the seed beds and subirrigated as in Procedure I and allowed to grow to a height of about 10 cm over a period of 11 days. Herbicide No. 1 and Insecticide No. 2 were then sequentially sprayed on the plant foliage. Observations were made three (3) weeks after initial treatment, 10 days after foliar treatment).

Corn [3] = assay: Greenhouse test Procedure II: herbicide, insecticide and antidote incorporated in cover layer (Example 4; Table 4); format: in vivo; settings: 3 weeks
Protocol: as §1
This procedure is the same as Procedure I, but modified in the manner that after incorporation of the chemicals (herbicide, antidote and insecticide), the containers with the covered seedbed were treated with an initial overhead irrigation equivalent to 0.6 cm rainfall, then subsequently sub-irrigated as required on greenhouse benches.
The procedure used in this test was Procedure No. 2 above. Formulations of herbicide, insecticide and antidote were applied via track sprayer sequentially onto cover layers, incorporated into the soil which was spread over seedbeds, then irrigated from above with 0.6 cm water. Observations were made three (3) weeks after treatment.

VELE (velvetleaf) = assay: Greenhouse test Procedure I with PPI or POE herbicide and foliar insecticide (Example 5; Table 5); format: in vivo, Abutilon theophrasti; settings: 3 weeks
Protocol: as §1, §2, §3

Corn [4] = assay: Greenhouse test, combination of Procedures II and III: insecticide in-furrow or in cover layer, herbicide and antidote incorporated in cover layer (Examples 1-3, 6; Tables 1-3, 6); format: in vivo; settings: 7 weeks
[5] = Antidote 1 0.14 + Herbicide 1 0.14 Kg/Ha
[6] = Antidote 1 0.56 + Herbicide 1 0.56 Kg/Ha
[7] = Antidote 1 2.24 + Herbicide 1 2.24 Kg/Ha
[8] = Antidote 1 0.14 + Herbicide 1 0.14 Kg/Ha PPI
[9] = Antidote 1 0.56 + Herbicide 1 0.56 Kg/Ha PPI
[10] = Antidote 1 2.24 + Herbicide 1 2.24 Kg/Ha PPI
[11] = Insecticide 2 1.68 (foliar) + Antidote 1 0.14 + Herbicide 1 0.14 Kg/Ha PPI
[12] = Insecticide 2 1.68 (foliar) + Antidote 1 2.24 + Herbicide 1 2.24 Kg/Ha PPI
[13] = Insecticide 2 1.68 (foliar) + Antidote 1 2.24 Kg/Ha PPI, no herbicide

CC1(C)OC(c2ccco2)CN1C(=O)C(Cl)Cl (stereo not drawn) [Antidote No. 1, Oxazolidine, 3-(dichloroacetyl)-2,2-dimethyl-5-(2-furanyl)-]
Percent Injury VELE [1, 5]: 88% | Percent Injury VELE [1, 6]: 92% | Percent Injury VELE [1, 7]: 93% | Percent Injury VELE ([1]; Antidote 1 2.24 Kg/Ha alone): 0% | % Injury VELE ([1]; Ex. 2: Antidote 1 0.14 + Herbicide 1 0.14 Kg/Ha): 86% | % Injury VELE ([1]; Ex. 2: Antidote 1 0.42 + Herbicide 1 0.14 Kg/Ha): 93% | % Injury VELE ([1]; Ex. 2: Antidote 1 0.56 + Herbicide 1 0.56 Kg/Ha): 90% | % Injury VELE ([1]; Ex. 2: Antidote 1 1.68 + Herbicide 1 0.56 Kg/Ha): 95% | % Injury VELE ([1]; Ex. 2: Insecticide 1 0.11 kg/305m + Antidote 1 0.14 + Herbicide 1 0.14 Kg/Ha): 78% | % Injury VELE ([1]; Ex. 2: Insecticide 1 0.11 kg/305m + Antidote 1 0.42 + Herbicide 1 0.14 Kg/Ha): 84% | % Injury VELE ([1]; Ex. 2: Insecticide 1 0.11 kg/305m + Antidote 1 0.56 + Herbicide 1 0.56 Kg/Ha): 93% | % Injury VELE ([1]; Ex. 2: Insecticide 1 0.11 kg/305m + Antidote 1 1.68 + Herbicide 1 0.56 Kg/Ha): 95% | % Injury VELE ([1]; Ex. 2: Insecticide 1 0.23 Kg/305m (ditto mark) + Antidote 1 0.22 + Herbicide 2 4.48 Kg/Ha (so in the source)): 36% and 38% | % Injury VELE ([1]; Ex. 2: Insecticide 1 0.23 Kg/305m + Antidote 1 0.14 + Herbicide 1 0.14 Kg/Ha): 83% | % Injury VELE ([1]; Ex. 2: Insecticide 1 0.23 Kg/305m + Antidote 1 0.22 + Herbicide 1 0.14 + Herbicide 2 4.48 Kg/Ha): 98% | % Injury VELE ([1]; Ex. 2: Insecticide 1 0.23 Kg/305m + Antidote 1 0.42 + Herbicide 1 0.14 Kg/Ha): 90% | % Injury VELE ([1]; Ex. 2: Insecticide 1 0.23 Kg/305m + Antidote 1 0.56 + Herbicide 1 0.56 Kg/Ha): 95% | % Injury VELE ([1]; Ex. 2: Insecticide 1 0.23 Kg/305m + Antidote 1 1.68 + Herbicide 1 0.56 Kg/Ha): 93% | % Injury VELE ([1]; Ex. 2: Insecticide 2 1.68 kg/Ha + Antidote 1 0.14 + Herbicide 1 0.14 Kg/Ha (so in the source)): 91% and 84% and 79% | % Injury VELE ([1]; Ex. 2: Insecticide 2 1.68 kg/Ha + Antidote 1 0.56 + Herbicide 1 0.56 Kg/Ha (so in the source)): 90% and 89% and 91% | % Injury VELE ([1]; Ex. 2: Insecticide 2 3.36 Kg/Ha + Antidote 1 0.14 + Herbicide 1 0.14 Kg/Ha (so in the source)): 81% and 79% and 89% | % Injury VELE ([1]; Ex. 2: Insecticide 2 3.36 Kg/Ha + Antidote 1 0.22 + Herbicide 1 0.14 + Herbicide 2 4.48 Kg/Ha): 83% | % Injury VELE ([1]; Ex. 2: Insecticide 2 3.36 Kg/Ha + Antidote 1 0.22 + Herbicide 2 4.48 Kg/Ha): 11% | % Injury VELE ([1]; Ex. 2: Insecticide 2 3.36 Kg/Ha + Antidote 1 0.56 + Herbicide 1 0.56 Kg/Ha (so in the source)): 95% | Percent Injury VELE ([1]; Insecticide 1 0.23 kg/305m + Antidote 1 0.14 + Herbicide 1 0.14 Kg/Ha): 87% | Percent Injury VELE ([1]; Insecticide 1 0.23 kg/305m + Antidote 1 0.14 Kg/Ha, no herbicide): 0% | Percent Injury VELE ([1]; Insecticide 1 0.23 kg/305m + Antidote 1 0.56 + Herbicide 1 0.56 Kg/Ha): 90% | Percent Injury VELE ([1]; Insecticide 1 0.23 kg/305m + Antidote 1 0.56 Kg/Ha, no herbicide): 0% | Percent Injury VELE ([1]; Insecticide 1 0.23 kg/305m + Antidote 1 2.24 + Herbicide 1 2.24 Kg/Ha): 92% | Percent Injury VELE ([1]; Insecticide 1 0.23 kg/305m + Antidote 1 2.24 Kg/Ha, no herbicide): 0% | Percent Injury VELE ([1]; Insecticide 1 (H2O) (crystals scattered in-furrow) + Antidote 1 2 + Herbicide 1 2 Kg/Ha): 95% | Percent Injury VELE ([1]; Insecticide 1 (H2O) (crystals scattered in-furrow) + Antidote 1 2 Kg/Ha): 0% | Percent Injury VELE ([1]; Insecticide 2 3.36 kg/ha + Antidote 1 0.14 + Herbicide 1 0.14 Kg/Ha): 83% | Percent Injury VELE ([1]; Insecticide 2 3.36 kg/ha + Antidote 1 0.14 Kg/Ha, no herbicide): 78% | Percent Injury VELE ([1]; Insecticide 2 3.36 kg/ha + Antidote 1 0.56 + Herbicide 1 0.56 Kg/Ha): 92% | Percent Injury VELE ([1]; Insecticide 2 3.36 kg/ha + Antidote 1 0.56 Kg/Ha, no herbicide): 33% | Percent Injury VELE ([1]; Insecticide 2 3.36 kg/ha + Antidote 1 2.24 + Herbicide 1 2.24 Kg/Ha): 95% | Percent Injury VELE ([1]; Insecticide 2 3.36 kg/ha + Antidote 1 2.24 Kg/Ha, no herbicide): 0% | % Injury Corn (Corn [2]; [8]): 0% | % Injury Corn (Corn [2]; [9]): 5% | % Injury Corn (Corn [2]; [10]): 0% | safening (Corn [2]; Ex. 5: PPI Herbicide No. 1 with or without Insecticide No. 2): safened PPI herbicide treatments | % Injury Corn (Corn [2]; [11]): 0% | % Injury Corn (Corn [2]; [12]): 0% | % Injury Corn (Corn [2]; [13]): 0% | % Injury Corn (Corn [3]; Antidote 1 0.07 + Herbicide 1 0.07 kg/Ha): 0% | % Injury Corn (Corn [3]; Antidote 1 0.07 + Herbicide 4 0.07 kg/Ha): 0% | % Injury Corn (Corn [3]; Antidote 1 0.07 + Herbicide 5 0.07 kg/Ha): 20% | % Injury Corn (Corn [3]; Antidote 1 0.07 + Herbicide 6 0.07 kg/Ha): 0% | % Injury Corn (Corn [3]; Antidote 1 0.14 + Herbicide 1 0.14 kg/Ha): 10% | % Injury Corn (Corn [3]; Antidote 1 0.14 + Herbicide 4 0.14 kg/Ha): 8% | % Injury Corn (Corn [3]; Antidote 1 0.14 + Herbicide 5 0.14 kg/Ha): 55% | % Injury Corn (Corn [3]; Antidote 1 0.14 + Herbicide 6 0.14 kg/Ha): 3% | % Injury Corn (Corn [3]; Insecticide 2 3.36 + Antidote 1 0.014 + Herbicide 1 0.14 kg/Ha): 0% | % Injury Corn (Corn [3]; Insecticide 2 3.36 + Antidote 1 0.07 + Herbicide 1 0.07 kg/Ha): 0% | % Injury Corn (Corn [3]; Insecticide 2 3.36 + Antidote 1 0.07 + Herbicide 4 0.07 kg/Ha): 25% | % Injury Corn (Corn [3]; Insecticide 2 3.36 + Antidote 1 0.07 + Herbicide 5 0.07 kg/Ha): 95% | % Injury Corn (Corn [3]; Insecticide 2 3.36 + Antidote 1 0.07 + Herbicide 6 0.07 kg/Ha): 5% | % Injury Corn (Corn [3]; Insecticide 2 3.36 + Antidote 1 0.14 + Herbicide 4 0.14 kg/Ha): 88% | % Injury Corn (Corn [3]; Insecticide 2 3.36 + Antidote 1 0.14 + Herbicide 5 0.14 kg/Ha): 95% | % Injury Corn (Corn [3]; Insecticide 2 3.36 + Antidote 1 0.14 + Herbicide 6 0.14 kg/Ha): 63% | % Injury VELE (VELE (velvetleaf); [8]): 85% | % Injury VELE (VELE (velvetleaf); [9]): 80% | % Injury VELE (VELE (velvetleaf); [10]): 93% | % Injury VELE (VELE (velvetleaf); [11]): 90% | % Injury VELE (VELE (velvetleaf); Insecticide 2 1.68 (foliar) + Antidote 1 0.56 + Herbicide 1 0.56 Kg/Ha PPI): 93% | % Injury VELE (VELE (velvetleaf); [12]): 93% | % Injury VELE (VELE (velvetleaf); [13]): 0% | Percent Injury Corn (Corn [4]; [5]): 2% | Percent Injury Corn (Corn [4]; [6]): 5% | Percent Injury Corn (Corn [4]; [7]): 15% | Percent Injury Corn (Corn [4]; Antidote 1 2.24 Kg/Ha alone): 0%
